Test results from patent publication US6943279B1, “Amino polyol amine oxidase polynucleotides and related polypeptides and methods of use” (priority 1999, dated 2005).
Read-outs that look alike come from different tables or passages of the source.

Key:
APAO = APAO activity of crude cell-free extract, TLC; assay type: biochemical, Exophiala spinifera; settings: for modification by the crude extract: crude cell-free extract of induced Exophiala spinifera, TLC
Method: For analysis of APAO activity, an alternative method was used. Equal volumes of sample and ^14C-AP1 (1 mg/ml, pH 8, 50 mM sodium phosphate) were incubated at room temperature for one to six days. Analytical thin-layer chromatography was then carried out on C60 HPK silica gel plates (Whatman #4807-700; 10×10 cm; 0.2 mm thick). After application of from 0.1 to 2 μl of aqueous sample, the plates were air-dried and developed in CHCl3:MeOH:CH3COOH:H20 (55:36:8:1). Plates were then air dried, and exposed to Phosphorlmager screen (Molecular Dynamics) or autoradiographic film. A Storm™ Phosphorlmager (Molecular Dynamics) was used to scan the image produced on the screen.
A cell-free extract that contains the deaminase activity was obtained by subjecting substrate-induced Exophiala spinifera cells to disruption using a Bead Beater™ in 50 mM Na-phosphate, pH 8.0, and recovering the cell-free supernatant by centrifugation and 0.45 micron filtration. Catabolic activity is assayed by incubating extracts with AP1 (hydrolyzed fumonisin BI backbone) or “^4C-labelled AP1 with the extract and evaluating by TLC on C18 or C60 silica. […] Other amine-containing substrates were tested for modification by the crude extract. […] Preparative amounts of the product, named 2-OP, have also been purified and analyzed by C13 nmr.

APAO enzyme = assay type: biochemical, Exophiala spinifera
Method: The following assay was used to determine the substrate specificity of the APAO enzyme. […] The APAO enzyme was recombinant enzyme produced,as GST fusion in E. coli, purified over a glutathione affinity column and cleaved with thrombin to remove the GST. All components were mixed at room temperature. The initial rate was determined in a spectrophotometer at 572 nm over one minute by absorbance units/second (BLANK). Ten microliters of APAO at 70 ug/ml was added and mixed. The initial rate was again determined at 572 nm over one minute in absorbance units/second (SAMPLE). The rates were converted to absorbance units/minute. The BLANK value was subtracted from the SAMPLE value. The absorbance units were converted to μM H2O2 wherein 1 μM H2O2 equals 0.138 absorbance units at pH 8.0.

BMS cells = test: Effect of FB1 and AP1 on maize tissue cultured cells (Black Mexican Sweet, BMS); assay type: cell-based; settings: for concentration at which growth of BMS cells was inhibited: 1 week, liquid culture, 96-well plates
Method: FB1 or AP1 at various concentrations was added to suspensions of BMS cells growing in liquid culture medium in 96-well polystyrene plates. After 1 week the cell density in wells was observed under low power magnification and growth of toxin-treated wells was compared to control wells that received water. […] This represents an approximate 100-fold difference in toxicity to maize tissue cultured cells. […] AP1 was not tested in that study, however.

Maize coleoptiles = test: Effect of FB1 and AP1 on maize coleoptiles; assay type: cell-based; set-up: key to Injury of maize coleoptiles: + = brown necrotic discoloration of coleoptile; − = no symptoms (same as water control); settings: for Injury of maize coleoptiles: 2 days dark 28° C., then 3 days light
Method: Maize coleoptiles from 4 day dark-grown germinated maize seeds were excised above the growing point and placed in 96-well microtiter plates in the presence of 60 microliters of sterile distilled water containing FB1 or AP1 at approximately equimolar concentrations of 1.5, 0.5, 0.15, 0.05, 0.015, 0.005, 0.0015, or 0.0005 millimolar, along with water controls. After 2 days in the dark at 28° C. the coleoptiles were placed in the light and incubated another 3 days.

maize callus = settings: solid medium; cited from earlier work
Lemna tissues = settings: AP1 versus FB1; cited from earlier work
tomato = settings: cited from earlier work
[1] = Mutated APAO lysates from E coli, Amplex Red assay, substrate AP1; assay type: biochemical
Method: The following assay was used to determine the substrate specificity of the APAO enzyme. Reaction mix: 436 μl of 200 mM Na-phosphate, pH8.0; 50 μl substrate (10 mM); 2 μl Amplex Red (1 mg in 200 μl DMSO); and 2 μof Peroxidase (5000 U/ml). The APAO enzyme was recombinant enzyme produced,as GST fusion in E. coli, purified over a glutathione affinity column and cleaved with thrombin to remove the GST. All components were mixed at room temperature. The initial rate was determined in a spectrophotometer at 572 nm over one minute by absorbance units/second (BLANK). Ten microliters of APAO at 70 ug/ml was added and mixed. The initial rate was again determined at 572 nm over one minute in absorbance units/second (SAMPLE). The rates were converted to absorbance units/minute. The BLANK value was subtracted from the SAMPLE value. The absorbance units were converted to μM H2O2 wherein 1 μM H2O2 equals 0.138 absorbance units at pH 8.0.
The APAO molecules mutated at specific cysteines were tested in a bacterial expression system using the previously described Amplex Red assay. The results can be seen in the table below entitled “Cys(−) APAO lysates from E. coli.” The mutated APAO molecules can then be tested in maize, linked to a signal peptide, as previously described. Either one of the cysteines or two or three together could be mutated to serines without any measured loss in APAO enzyme activity of the E coli-expressed enzyme. […] The mutated versions of APAO operably linked to a signal sequence, which retain function when expressed as recombinant fusion proteins in E. coli may also provide additional stability or foldability when expressed in plants or other secretion expression systems.

[2] = as above; assay type: biochemical; settings: Glyc(−) APAO lysates from E coli
[3] = Mutated APAO lysates from E coli, Amplex Red assay, substrate FB1; assay type: biochemical
[4] = 1 mM substrate, pH 8.0, room temperature
[5] = 0.5 mg/mL substrate, pH 8.0, room temperature
[6] = Cys(−) APAO lysates from E coli
[7] = Triple Cys(−) APAO lysates from E coli
[8] = Glyc(−) APAO lysates from E coli

CCCCCCCCCCCCCC[C@@H](O)[C@@H](O)[C@@H](N)CO [phytosphingosine]
modification by the crude extract (APAO): apparently not modified

CCCCCCCCCCCCCCC[C@@H](O)[C@@H](N)CO [sphinganine]
modification by the crude extract (APAO): apparently not modified

CNC[C@H](O)c1ccc(O)c(O)c1 [epinephrine]
RATE (APAO enzyme; pH 8): 0.0071 μM H2O2/min

CCCCCCCCCCCCC/C=C/[C@@H](O)[C@@H](N)CO [sphingosine]
modification by the crude extract (APAO): apparently not modified

CCCC[C@@H](C)[C@@H](OC(=O)C[C@@H](CC(=O)O)C(=O)O)[C@H](C[C@@H](C)C[C@H](O)CCCC[C@@H](O)C[C@H](O)[C@H](C)N)OC(=O)C[C@@H](CC(=O)O)C(=O)O [FB1, fumonisin B1]
concentration at which growth of BMS cells was inhibited (BMS cells): 400 nM | RATE (APAO enzyme; [4]): 0.1429 μM H2O2/min | Injury of maize coleoptiles (Maize coleoptiles; 1.5 mM): + | Injury of maize coleoptiles (Maize coleoptiles; .0005 mM): − | Injury of maize coleoptiles (Maize coleoptiles; .0015 mM): − | Injury of maize coleoptiles (Maize coleoptiles; .005 mM): − | Injury of maize coleoptiles (Maize coleoptiles; .05 mM): + | Injury of maize coleoptiles (Maize coleoptiles; .15 mM): + | Injury of maize coleoptiles (Maize coleoptiles; .5 mM): + | concentration giving significant inhibition of maize callus (maize callus): 1400 nM | modification by the crude extract (APAO): not modified

CCCC[C@@H](C)[C@@H](O)[C@@H](O)C[C@@H](C)C[C@H](O)CCCC[C@@H](O)C[C@H](O)[C@H](C)N [AP1]
concentration at which growth of BMS cells was inhibited (BMS cells): 40000 nM | difference in toxicity to maize tissue cultured cells (BMS cells; AP1 versus FB1): ~100 fold | RATE (APAO enzyme; [4]): 0.8876 μM H2O2/min | less toxic than FB1 in Lemna tissues (Lemna tissues): approx. 40 fold | Injury of maize coleoptiles (Maize coleoptiles; 1.5 mM): + | Injury of maize coleoptiles (Maize coleoptiles; .0005 mM): − | Injury of maize coleoptiles (Maize coleoptiles; .0015 mM): − | Injury of maize coleoptiles (Maize coleoptiles; .005 mM): − | Injury of maize coleoptiles (Maize coleoptiles; .015 mM): − | Injury of maize coleoptiles (Maize coleoptiles; .05 mM): − | Injury of maize coleoptiles (Maize coleoptiles; .15 mM): − | Injury of maize coleoptiles (Maize coleoptiles; .5 mM): − | difference in toxicity between FB1 and AP1 to maize coleoptiles (Maize coleoptiles; AP1 versus FB1): ≥ 30 fold | reduction in toxicity to tomato by AP1 versus FB1 (tomato): ~100 fold | time to complete conversion to 2-OP (APAO; pH 9): 30 min

NC[C@H](O)c1ccc(O)c(O)c1 [norepinephrine]
RATE (APAO enzyme; [4]): 0.0087 μM H2O2/min

NCCCNCCCCNCCCN [spermine]
RATE (APAO enzyme; pH 8): 0.0002 μM H2O2/min

CCCC[C@@H](C)[C@@H](OC(=O)C[C@@H](CC(=O)O)C(=O)O)[C@H](C[C@@H](C)C[C@H](O)CCCCCC[C@H](O)[C@H](C)N)OC(=O)C[C@@H](CC(=O)O)C(=O)O [Fumonisin B3]
RATE (APAO enzyme; [4]): 0.1449 μM H2O2/min

CCCC[C@@H](C)[C@@H](OC(=O)C[C@@H](CC(=O)O)C(=O)O)[C@H](C[C@@H](C)CCCCCCCC[C@H](O)[C@H](C)N)OC(=O)C[C@@H](CC(=O)O)C(=O)O [Fumonisin B4]
RATE (APAO enzyme; [5]): 0.1728 μM H2O2/min

CCCC[C@@H](C)[C@@H](OC(=O)C[C@@H](CC(=O)O)C(=O)O)[C@H](C[C@@H](C)CCCCCC[C@@H](O)C[C@H](O)[C@H](C)N)OC(=O)C[C@@H](CC(=O)O)C(=O)O [Fumonisin B2]
RATE (APAO enzyme; [5]): 0.3058 μM H2O2/min

NCCc1ccc(O)c(O)c1 [dopamine]
RATE (APAO enzyme; pH 8): 0.0040 μM H2O2/min

B1: APAO: amino polyol amine oxidase from Exophiala spinifera, ATCC 74269 (SEQ ID NO: 23) (protein, listed as Exophiala spinifera)
chain: MALAPSYINPPNVASPAGYSHVGVGPDGGRYVTIAGQIGQDASGVTDPAYEKQVAQAFANLRACLAAVGATSNDVTKLNYYIVDYAPSKLTAIGDGLKATFALDRLPPCTLVPVSALSSPEYLFEVDATALVPGHTTPDNVADVVVVGAGLSGLETARKVQAAGLSCLVLEAMDRVGGKTLSVQSGPGRTTINDLGAAWINDSNQSEVSRLFERFHLEGELQRTTGNSIHQAQDGTTTTAPYGDSLLSEEVASALAELLPVWSQLIEEHSLQDLKASPQAKRLDSVSFAHYCEKELNLPAVLGVANQITRALLGVEAHEISMLFLTDYIKSATGLSNIFSDKKDGGQYMRCKTGMQSICHAMSKELVPGSVHLNTPVAEIEQSASGCTVRSASGAVFRSKKVVVSLPTTLYPTLTFSPPLPAEKQALAENSILGYYSKIVFVWDKPWWREQGFSGVLQSSCDPISFARDTSIDVDRQWSITCFMVGDPGRKWSQQSKQVRQKSVWDQLRAAYENAGAQVPEPANVLEIEWSKQQYFQGAPSAVYGLNDLITLGSALRTPFKSVHFVGTETSLVWKGYMEGAIRSGQRGAAEVVASLVPAA
Conclusion [1, 6]: Active (wild type) | M H2O2/min [1, 6]: 2.14 μM H2O2/min | Conclusion [1, 7]: Active (wild type) | M H2O2/min [1, 7]: 1.16 μM H2O2/min | Conclusion [2]: Active (wild type) | M H2O2/min [2]: 1.92 μM H2O2/min | activity on intact FB1 and other B-series fumonisins (APAO enzyme; recombinant APAO enzyme expressed in E. coli): significant but reduced activity | Conclusion [3, 6]: Slightly active (wt) | M H2O2/min [3, 6]: 0.11 μM H2O2/min | Conclusion [3, 8]: Slightly active (wt) | M H2O2/min [3, 8]: 0.12 μM H2O2/min | Conclusion [3, 7]: Slightly active (wt) | M H2O2/min [3, 7]: 0.27 μM H2O2/min | AP1 catabolic activity after heating (APAO; following 30 min. at 65° C. or 100° C.): no AP1 catabolic activity remained | activity on intact FB1 (APAO; partially purified APAO enzyme from Exophiala spinifera): little or no activity
